These results are taken from patent US20250084056A1, “SUBSTITUTED OXOISOINDOLINYL PIPERIDINE-2,6-DIONE COMPOUNDS” (BRISTOL-MYERS SQUIBB COMPANY, priority 2023, published 2025).

SMILES strings stand for the structures. Where only a bound is given, the exact number is not on record here.

One experiment deals with pS807/811 Rb1. Description: Inhibition of RB1 phosphorylation (Western blot) in HCC1569 cells. It counts as cell-based. The following applies: HCC1569 cancer cells, 24 h, FIG. 1B. On the procedure:
The assay measured the ability of the compound to degrade Cyclin E1, inhibit RB phosphorylation, and to determine the selectivity against degradation of GSPT1 in cancer cells in vitro. HCC1569 cells (ATCC #CRL-2330) were cultured in RPMI media (Gibco, catalog A104910) supplemented with 10% FBS (Gibco, catalog 10091148). Cells were plated in tissue culture-treated 6 well plates at a density of 0.5 million cells per well in 2 mL media. The cells were then incubated overnight in a cell culture incubator (5% CO2 and 37° C.) and allowed to attach to the plate. The following day cells were dosed with compounds at the desired concentrations. Compounds were first resuspended in DMSO to make 10 mM stock, and 20 μM stock was prepared by diluting 10 mM stock in culture media. […] Total protein concentration was measured using a BCA assay kit (Thermo Scientific, cat #P123227). […] Protein was then detected by incubating blots with 2 mL of HRP detection reagent (Thermo scientific cat #A38556) for one minute at room temperature. Excess reagent was drained and gently removed on a Kimwipe and the chemiluminescence signal was detected using Fluorchem imaging system. […] Relative quantification of western blots was performed using ImageJ software, data was then normalized to loading control (β-Actin) first and then to the DMSO-treated sample. […]

For the next experiment, the target named is GSPT1 (Homo sapiens, UniProt P15170+Q96SW2). The experiment in a line: GSPT1 Cellular Degradation Assay (DF15-GSPT1-ePL). The format is cell-based. The arrangement: expressed in transfected cells. The following applies: DF15-GSPT1-ePL cells, 20 hours. Put shortly: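 Human DF15 cells co-expressing a GSPT1–ePL fusion were treated with compound in RPMI 1640/10% FBS for 20 h at 37 °C. GSPT1 level was read by enzyme-fragment-complementation luminescence after 60 min with detection reagent. The reference degrader at […] defined 75% response; DC50 and Dmax were reported.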
Sequence of GSPT1 (P15170 whole entry, the tested form may be a part): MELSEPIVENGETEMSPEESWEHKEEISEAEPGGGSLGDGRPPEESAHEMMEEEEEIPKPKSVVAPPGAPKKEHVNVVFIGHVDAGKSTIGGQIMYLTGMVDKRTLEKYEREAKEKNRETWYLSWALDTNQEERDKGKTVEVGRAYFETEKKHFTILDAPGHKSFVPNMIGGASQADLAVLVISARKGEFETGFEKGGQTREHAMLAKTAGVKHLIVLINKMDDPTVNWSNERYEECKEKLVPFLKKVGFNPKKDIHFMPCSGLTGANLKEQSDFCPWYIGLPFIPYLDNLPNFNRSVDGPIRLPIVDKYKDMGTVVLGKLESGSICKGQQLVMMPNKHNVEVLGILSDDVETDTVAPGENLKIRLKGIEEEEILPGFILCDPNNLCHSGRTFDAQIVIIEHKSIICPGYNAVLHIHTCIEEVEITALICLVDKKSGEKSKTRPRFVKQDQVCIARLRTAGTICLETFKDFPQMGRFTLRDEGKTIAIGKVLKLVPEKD
Sequence of GSPT1 (Q96SW2 whole entry, the tested form may be a part): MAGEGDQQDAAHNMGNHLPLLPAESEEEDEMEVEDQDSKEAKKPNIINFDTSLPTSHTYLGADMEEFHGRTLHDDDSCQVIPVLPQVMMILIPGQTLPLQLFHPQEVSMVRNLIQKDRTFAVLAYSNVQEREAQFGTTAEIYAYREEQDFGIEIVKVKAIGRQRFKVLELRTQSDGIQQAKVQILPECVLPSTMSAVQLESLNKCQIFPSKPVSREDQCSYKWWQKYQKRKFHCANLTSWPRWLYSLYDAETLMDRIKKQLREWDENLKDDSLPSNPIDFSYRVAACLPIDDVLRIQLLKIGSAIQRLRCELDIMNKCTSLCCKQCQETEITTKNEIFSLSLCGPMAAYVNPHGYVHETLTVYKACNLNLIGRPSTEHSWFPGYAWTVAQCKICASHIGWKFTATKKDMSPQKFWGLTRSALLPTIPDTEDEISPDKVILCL
Sequence of GSPT1 (Q16531 whole entry partner, the tested form may be a part): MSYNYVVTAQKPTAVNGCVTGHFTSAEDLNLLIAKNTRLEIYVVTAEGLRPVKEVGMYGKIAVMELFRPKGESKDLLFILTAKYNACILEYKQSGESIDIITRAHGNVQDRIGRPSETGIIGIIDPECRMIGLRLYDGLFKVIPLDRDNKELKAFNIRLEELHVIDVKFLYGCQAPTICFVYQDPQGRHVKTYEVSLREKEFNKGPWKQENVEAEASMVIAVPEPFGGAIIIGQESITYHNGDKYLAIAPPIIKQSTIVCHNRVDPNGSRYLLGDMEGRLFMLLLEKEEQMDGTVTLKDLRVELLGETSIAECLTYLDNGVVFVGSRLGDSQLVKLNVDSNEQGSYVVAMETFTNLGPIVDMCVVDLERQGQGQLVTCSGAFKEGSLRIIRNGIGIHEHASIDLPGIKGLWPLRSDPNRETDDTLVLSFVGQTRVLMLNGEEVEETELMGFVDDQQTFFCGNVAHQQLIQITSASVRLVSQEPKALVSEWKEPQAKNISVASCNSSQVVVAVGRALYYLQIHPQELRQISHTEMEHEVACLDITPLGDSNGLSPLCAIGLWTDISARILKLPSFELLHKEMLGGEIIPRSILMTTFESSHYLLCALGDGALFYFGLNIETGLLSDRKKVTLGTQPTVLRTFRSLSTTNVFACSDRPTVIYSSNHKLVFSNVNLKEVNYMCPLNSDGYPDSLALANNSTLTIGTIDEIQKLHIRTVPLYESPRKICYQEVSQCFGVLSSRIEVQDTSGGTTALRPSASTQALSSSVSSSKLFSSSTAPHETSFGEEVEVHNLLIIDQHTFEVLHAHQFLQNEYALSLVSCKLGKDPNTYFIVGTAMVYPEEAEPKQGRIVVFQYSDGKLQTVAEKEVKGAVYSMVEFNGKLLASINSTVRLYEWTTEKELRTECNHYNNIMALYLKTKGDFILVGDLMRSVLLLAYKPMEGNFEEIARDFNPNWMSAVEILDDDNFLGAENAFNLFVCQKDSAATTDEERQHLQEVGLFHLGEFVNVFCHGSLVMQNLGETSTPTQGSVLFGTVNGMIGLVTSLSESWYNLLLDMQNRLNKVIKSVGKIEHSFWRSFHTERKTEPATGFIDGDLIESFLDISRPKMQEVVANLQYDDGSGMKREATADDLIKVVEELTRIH

The test system of experiment [1] is MKN1 gastric carcinoma xenograft model. Description: In vivo xenograft tumor efficacy study, MKN1. The arrangement: species or system mice.

On to `COc1c(COC(=O)Nc2ccc(Oc3ccc(F)c(F)c3)cc2)ccc2c1C(=O)N([C@H]1CCC(=O)NC1=O)C2` (single isomer, unassigned) [Example 35, {2-[(3 S)-2,6-dioxopiperidin-3-yl]-4-methoxy-3-oxo-2,3-dihydro-1H-isoindol-5-yl}methyl N-[4-(3,4-difluorophenoxy)phenyl]carbamate], for which, in the experiment with pS807/811 Rb1, the “inhibition of RB1 phosphorylation” value was “inhibited RB1 phosphorylation”. On GSPT1, the DC50 is above 14 µM and the Dmax amounted to 46%. Further, in experiment [1] (MKN1 gastric carcinoma xenograft, 30 mpk, QDx28 (as printed in text)), the “tumor growth inhibition (TGI)” value is listed as 95%. Also, the “Tumor efficacy, TGI (tumor growth inhibition)” value in experiment [1] (MKN1 stomach, 10 mg/kg PO, QDx28) stood at 95% TGI. Moreover, in experiment [1] (MKN1 xenografts, repeated dosing), the anti-tumor activity entry is listed as “dose-dependent anti-tumor activity”.
